Key:
Assay type in all cases: cell-based
[1] = test system: human small cell lung carcinoma (NYH); experiment: Inhibition of tumour cell proliferation in vitro, NYH ([3H]thymidine incorporation); conditions: human NYH cells, 24 hours, DNA synthesis by [3H]thymidine incorporation
Description: (§1) The inhibition of tumour cell proliferation was studied using different types of human cancer cell lines. The cell lines under investigation were small cell lung carcinoma (NYH), non small cell lung carcinoma (NCI-H460), and breast cancer (MCF-7) using the following general procedure:
(§2) The cells were cultured in vitro for 24 hours in the presence of the compound under investigation. DNA synthesis was measured by incorporation of [3H]thymidine, and the median inhibitory concentrations (IC50) of the compounds were calculated.

[2] = test system: human breast cancer (MCF-7); experiment: Inhibition of tumour cell proliferation in vitro, MCF-7 ([3H]thymidine incorporation); conditions: MCF7, human MCF-7 cells, 24 hours, DNA synthesis by [3H]thymidine incorporation
Description: as §1, §2

[3] = test system: human non small cell lung cancer (NCI-H460); experiment: Inhibition of tumour cell proliferation in vitro, NCI-H460 ([3H]thymidine incorporation); conditions: human NCI-H460 cells, 24 hours, DNA synthesis by [3H]thymidine incorporation
Description: as §1, §2

IC50 [1] [nM] | IC50 [2] [nM] | IC50 [3] [nM] | SMILES
4.5 | 21 | – | N#CNC(=Nc1ccncc1)NCCCCCCCCCCCOc1ccccc1 [Example No. 1, N-Cyano-N'-(11-phenoxyundecyl)-N"-4-pyridylguanidine]
5.9 | 13 | 49 | N#CNC(=Nc1ccncc1)NCCCCCCCCCCOc1ccccc1 [Example No. 3, N-Cyano-N'-(10-phenoxydecyl)-N"-4pyridylguanidine]
5.3 | 18 | 43 | N#CNC(=Nc1ccncc1)NCCCCCCCCCOc1ccccc1 [Example No. 4, N-Cyano-N'-(9-phenoxynonyl)-N"-4-pyridylguanidine]
380 | 920 | > 1000 | N#CN=C(NCCCCOc1ccccc1)Nc1ccncc1 [Prior art A, NCyano-N(4-phenoxybutyl)-N4-pyridylguanidine, reference compound]
45 | 250 | 67 | N#CN=C(NCCCCCOc1ccccc1)Nc1ccncc1 [Prior art B, NCyano-N(5-phenoxypentyl)-N4-pyridylguanidine, reference compound]

— patent US6121297A, “Cyanoguanidines as cell proliferation inhibitors” (Leo Pharmaceutical Products Ltd. A/S, priority 1997, dated 2000)
